Data: patent US10023538B2, “Compounds, compositions and associated methods comprising 3-aryl quinolines” (Oregon Health & Science University, priority 2012, dated 2018)
Where two headings read alike, the source gives them in different places.

Legend:
P. falciparum strain Dd2 = test: Antiplasmodial fluorescence-based SyBr Green assay, strain Dd2; assay type: cell-based, Plasmodium falciparum
Description: (§1) The IC50 values listed in Table 1 were determined by the fluorescence-based SyBr Green assay described in Smilkstein (Smilkstein M, Antimicrob Agents Chemother 48, 1803-1806 (2004)). Values are the mean of at least two experiments, each performed in triplicate. […] NT=not tested.

P. falciparum strain 7G8 = test: Antiplasmodial fluorescence-based SyBr Green assay, strain 7G8; assay type: cell-based, Plasmodium falciparum
Description: as §1

[1] = tested on: P. falciparum strain Tm90.C2B; test: Antiplasmodial activity against strain Tm90.C2B; assay type: cell-based, Plasmodium falciparum
Description: as §1
Furthermore, Compound 1 was evaluated against the strain Tm90.C2B.

P. falciparum strain D6 = test: Antiplasmodial fluorescence-based SyBr Green assay, strain D6; assay type: cell-based, Plasmodium falciparum
Description: as §1

P. yoelii = test: In vivo efficacy, P. yoelii mouse model of malaria (Strain K model); parameters: species or system female CF1 mice; conditions: P. yoelii / CF1 mice
Description: The efficacy of Compound 1 in vivo using a P. yoelii mouse model of malaria (Strain K model) was studied. Female CF1 mice were inoculated intravenously with 1-2 million infected red blood cells obtained from infected donor animals. Infected cells were collected then randomly sorted into groups of four mice on Day 0. Drug administration began on Day 1. […] Both drugs were administered daily by gavage as the dihydrochloride salt dissolved in 100 μl of water for Days, 1, 2, 3, and 4. Blood films were prepared on Day 5 (the day after the final drug dose), fixed in methanol, stained with Giemsa, and viewed microscopically to assess parasitemia.

P. falciparum strains = test: Antiplasmodial IC50 across P. falciparum strains (average / range); assay type: cell-based, Plasmodium falciparum
Description: as §1

[2] = Heme binding affinity in solution (UV/visible titration, NMR); conditions: 20 mM phosphate buffer, pH 7.0, 25° C.; titration and NMR
Description: The binding affinity of Compound 1 and heme in solution was assessed as described by Kelly (Kelly, J X et al, Antimicrob Agents Chemother 46, 144-150 (2002); Kelly J X et al, Mol Biochem Parasitol 123, 47-54 (2002)). This assay correlates heme binding affinity and the mode of binding (i.e., binding to heme monomer or dimer) to intrinsic antimalarial activity in vitro and in vivo.
Association constants for heme-drug complexes were determined with all titrations conducted under aqueous conditions in 20 mM phosphate buffer, at pH 7.0 and 25° C. Titrations with compounds were performed by successive addition of aliquots of a 1 mM stock solution to a 10 μM heme solution at constant pH. All UV/visible spectral data was analyzed digitally with absorbance readings and concentrations corrected for dilution effects. The resulting titration curves were analyzed with Hill plot (Cantor and Schimmel, Biophysical Chemistry, W H Freeman and Co, New York, 1980) and non-linear curve fitting methods (Connors, Chemical Kinetics, VCH Publishers, New York, 1990). Titration curves were fit to the most accurate binding isotherm and stoichiometry.
Heme:drug interaction was assessed by NMR. NMR investigations involving Compound 1 binding to heme were performed as described in Kelly (Kelly, et al, supra).

hERG potassium channel = hERG potassium channel (Homo sapiens, UniProt Q12809); test: hERG channel inhibition, QPatch HT automatic parallel patch clamp; assay type: cell-based; conditions: hERG current expressed in mammalian cells, room temperature, tested at 1, 4, 12 μM in duplicate
hERG potassium channel, sequence (Q12809 whole entry): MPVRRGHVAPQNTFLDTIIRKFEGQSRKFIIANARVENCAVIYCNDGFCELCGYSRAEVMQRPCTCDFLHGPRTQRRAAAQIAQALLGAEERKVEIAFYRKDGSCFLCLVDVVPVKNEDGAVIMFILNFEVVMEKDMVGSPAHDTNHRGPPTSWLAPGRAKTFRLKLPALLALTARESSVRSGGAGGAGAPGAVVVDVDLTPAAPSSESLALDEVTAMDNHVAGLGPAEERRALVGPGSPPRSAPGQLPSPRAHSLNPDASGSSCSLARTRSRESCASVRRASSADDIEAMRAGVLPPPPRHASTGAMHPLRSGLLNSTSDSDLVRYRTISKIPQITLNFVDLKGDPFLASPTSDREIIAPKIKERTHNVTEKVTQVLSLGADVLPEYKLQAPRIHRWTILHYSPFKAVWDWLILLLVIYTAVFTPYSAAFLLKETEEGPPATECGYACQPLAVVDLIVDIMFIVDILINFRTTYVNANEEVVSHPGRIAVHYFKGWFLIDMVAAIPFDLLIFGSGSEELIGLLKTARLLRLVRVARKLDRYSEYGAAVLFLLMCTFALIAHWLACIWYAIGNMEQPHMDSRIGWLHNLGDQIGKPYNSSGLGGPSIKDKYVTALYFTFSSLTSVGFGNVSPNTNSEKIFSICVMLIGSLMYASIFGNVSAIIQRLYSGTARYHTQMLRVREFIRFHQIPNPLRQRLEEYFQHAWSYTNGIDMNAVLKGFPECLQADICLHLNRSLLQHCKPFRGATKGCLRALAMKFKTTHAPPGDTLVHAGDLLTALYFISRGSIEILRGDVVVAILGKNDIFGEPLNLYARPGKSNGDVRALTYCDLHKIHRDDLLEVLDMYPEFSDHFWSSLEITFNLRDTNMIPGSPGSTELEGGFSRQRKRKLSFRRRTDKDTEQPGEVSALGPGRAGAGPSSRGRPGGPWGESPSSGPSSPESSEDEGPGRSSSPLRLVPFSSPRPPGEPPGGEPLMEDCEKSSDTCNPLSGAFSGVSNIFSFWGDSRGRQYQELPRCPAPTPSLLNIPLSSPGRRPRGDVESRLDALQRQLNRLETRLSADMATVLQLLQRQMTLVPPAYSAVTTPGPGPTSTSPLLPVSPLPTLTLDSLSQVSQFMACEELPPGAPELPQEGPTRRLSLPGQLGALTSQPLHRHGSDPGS

[3] = Cytotoxicity vs. murine splenic lymphocytes; assay type: cell-based; conditions: mouse
[4] = Plasmodium falciparum, P. falciparum Dd2, multidrug resistant, mean of at least two experiments in triplicate, read-out: IC50 Values (nM) Strain Dd2
[5] = Plasmodium falciparum, P. falciparum 7G8, multidrug resistant, mean of at least two experiments in triplicate, read-out: IC50 Values (nM) Strain 7G8
[6] = Plasmodium falciparum, P. falciparum Tm90.C2B, multidrug and atovaquone resistant, unit inferred, read-out: IC50 value against strain Tm90.C2B
[7] = Plasmodium falciparum, D6; read-out: IC50 Values (nM) Strain D6
[8] = Plasmodium falciparum, DD2, read-out: IC50 Values (nM) Strain Dd2
[9] = Plasmodium falciparum, 7G8, read-out: IC50 Values (nM) Strain 7G8
[10] = Plasmodium falciparum, D6, read-out: IC50 Values (nM) Strain D6
[11] = P. falciparum Dd2, multidrug resistant, mean of at least two experiments in triplicate, read-out: IC50 Values (nM) Strain Dd2
[12] = P. falciparum 7G8, multidrug resistant, mean of at least two experiments in triplicate, read-out: IC50 Values (nM) Strain 7G8
[13] = P. falciparum D6, chloroquine sensitive; mean of at least two experiments in triplicate; read-out: IC50 Values (nM) Strain D6

Structure (SMILES) | IC50 (P. falciparum strain Dd2; [4]) | IC50 (P. falciparum strain 7G8; [5]) | IC50 (P. falciparum strain D6; [7]) | also measured
O=C1C(O)=C([C@H]2CC[C@H](c3ccc(Cl)cc3)CC2)C(=O)c2ccccc21 [Atovaquone, reference compound] | 0.1 nM | 0.1 nM | 0.1 nM | IC50 [1, 6]: 7700 nM
CCN(CC)CCCC(C)Nc1ccnc2cc(Cl)ccc12 (stereo not shown) [Chloroquine, reference compound] | – | – | – | IC50 (P. falciparum strain Dd2; [8]): 120 nM; IC50 (P. falciparum strain 7G8; [9]): 78 nM; IC50 ([1]; Plasmodium falciparum, TM90, read-out: IC50 value against strain Tm90.C2B): 106 nM; Cure of animals (P. yoelii; at dosages as high as 64 mg/kg/day): did not cure any of the animals; IC50 (P. falciparum strain D6; [10]): 9.2 nM
CC(C)(C)NCCCNc1c(-c2ccc(OC(F)(F)F)cc2)cnc2cc(Cl)ccc12 [Compound 1, N1-(tert-butyl)-N3-(7-chloro-3-(4-(trifluoromethoxy)phenyl)-quinolin-4-yl)-propane-1,3-diamine] | 1.4 nM | 1.3 nM | 0.9 nM | IC50 (P. falciparum strains; Plasmodium falciparum, average over strains, read-out: Avg IC50 values vs P. falciparum strains): 1.2 nM; IC50 [1, 6]: 1.3 nM; Affinity for free heme [2]: strong affinity for free heme; ED50 (P. yoelii; gavage daily Days 1-4, parasitemia Day 5, drugs given as salts): 0.25 mg/kg/day; Cure of animals (P. yoelii; at 16 and 64 mg/kg/day): cured all animals; IC50 (hERG potassium channel): 4000 nM; IC50 [3]: 4980 nM
CC(C)(C)NCCCNc1c(-c2ccc(Cl)cc2)cnc2cc(Cl)ccc12 [Compound 2] | 15 nM | 5.8 nM | 8 nM | –
CC(C)(C)NCCCNc1c(-c2ccccc2)cnc2cc(Cl)ccc12 [Compound 3] | 17 nM | 6.4 nM | 8.7 nM | –
CC(C)(C)NCCCNc1c(-c2ccc(C(F)(F)F)cc2)cnc2cc(Cl)ccc12 [Compound 4] | 11.9 nM | 9.7 nM | 4.8 nM | –
CC(C)(C)NCCCNc1c(-c2ccc(C(F)(F)F)nc2)cnc2cc(Cl)ccc12 [Compound 5] | 89 nM | 132 nM | 55.2 nM | –
CC(C)(C)NCCCNc1c(-c2ccc(Oc3ccc(OC(F)(F)F)cc3)cc2)cnc2cc(Cl)ccc12 [Compound 6] | 3.3 nM | 1.6 nM | 2.3 nM | –
CC(C)(C)NCCCNc1c(-c2ccc(-c3ccccc3)cc2)cnc2cc(Cl)ccc12 [Compound 7] | 2.9 nM | 1.4 nM | 0.9 nM | –
CC(C)(C)NCCCNc1c(-c2ccc(-c3ccc(OC(F)(F)F)cc3)cc2)cnc2cc(Cl)ccc12 [Compound 8] | – | – | – | IC50 (P. falciparum strain Dd2; [11]): 5.9 nM; IC50 (P. falciparum strain 7G8; [12]): 8.3 nM; IC50 (P. falciparum strain D6; [13]): 5.3 nM
CC(C)(C)NCCCNc1c(-c2ccc(F)cc2)cnc2cc(Cl)ccc12 [Compound 10] | – | – | – | IC50 (P. falciparum strain Dd2; [11]): 11.7 nM; IC50 (P. falciparum strain 7G8; [12]): 32.8 nM; IC50 (P. falciparum strain D6; [13]): 13.1 nM
COc1ccc(-c2cnc3cc(Cl)ccc3c2NCCCNC(C)(C)C)cc1 [Compound 11] | 11.7 nM | 20.6 nM | 9.5 nM | –
CN(C)c1ccc(-c2cnc3cc(Cl)ccc3c2NCCCNC(C)(C)C)cc1 [Compound 12] | 7 nM | 11.7 nM | 5.1 nM | –
CC(C)(C)NCCCNc1c(-c2ccc(OC(F)F)cc2)cnc2cc(Cl)ccc12 [Compound 13] | 4.9 nM | 5.6 nM | 2.4 nM | –
CC(C)(C)NCCCNc1c(-c2ccc(N3CCOCC3)cc2)cnc2cc(Cl)ccc12 [Compound 14] | 6.7 nM | 8.2 nM | 4.4 nM | –
CC(C)(C)NCCCNc1c(-c2ccc(CN3CCOCC3)cc2)cnc2cc(Cl)ccc12 [Compound 15] | – | – | – | IC50 (P. falciparum strain Dd2; [11]): 0.9 nM; IC50 (P. falciparum strain 7G8; [12]): 0.9 nM; IC50 (P. falciparum strain D6; [13]): 0.8 nM
CC(C)(C)NCCCNc1c(-c2ccc(Br)cc2)cnc2cc(Cl)ccc12 [Compound 16] | – | – | – | IC50 (P. falciparum strain Dd2; [11]): < 2.5 nM; IC50 (P. falciparum strain 7G8; [12]): 2.5 nM; IC50 (P. falciparum strain D6; [13]): < 2.5 nM
CC(C)(C)NCCCNc1c(-c2ccc(C#N)cc2)cnc2cc(Cl)ccc12 [Compound 17] | 21.8 nM | 26.3 nM | 13.5 nM | –
CC(C)(C)NCCCNc1c(-c2cccc(OC(F)(F)F)c2)cnc2cc(Cl)ccc12 [Compound 18] | < 2.5 nM | < 2.5 nM | < 2.5 nM | –
FC(F)(F)Oc1ccc(-c2cnc3cc(Cl)ccc3c2NCCC2CCCCN2)cc1 (stereo not shown) [Compound 22] | 1.8 nM | < 2.5 nM | 0.7 nM | –
CCN(CC)CCNc1c(-c2ccc(OC(F)(F)F)cc2)cnc2cc(Cl)ccc12 [Compound 23] | 80 nM | 93 nM | 35 nM | –
CCN(CC)CCCNc1c(-c2ccc(OC(F)(F)F)cc2)cnc2cc(Cl)ccc12 [Compound 24] | – | – | – | IC50 (P. falciparum strain Dd2; [11]): 4.4 nM; IC50 (P. falciparum strain 7G8; [12]): 8.5 nM; IC50 (P. falciparum strain D6; [13]): 3.4 nM
CCN(CC)CCCC(C)Nc1c(-c2ccc(OC(F)(F)F)cc2)cnc2cc(Cl)ccc12 (stereo not shown) [Compound 25] | 7.8 nM | 11.1 nM | 3.5 nM | –
CC(C)(C)NCCNc1c(-c2ccc(OC(F)(F)F)cc2)cnc2cc(Cl)ccc12 [Compound 26] | – | – | – | IC50 (P. falciparum strain Dd2; [11]): 4.9 nM; IC50 (P. falciparum strain 7G8; [12]): 4.5 nM; IC50 (P. falciparum strain D6; [13]): 0.6 nM
CCN(CC)CCCC(C)Nc1c2ccc(Cl)cc2nc2ccc(OC)cc12 (stereo not shown) [Quinacrine, reference compound] | – | – | – | IC50 (P. falciparum strain Dd2; [8]): 10 nM; IC50 (P. falciparum strain 7G8; [9]): 9 nM; IC50 (P. falciparum strain D6; [10]): 5 nM
C=C[C@H]1C[N@@]2CC[C@H]1C[C@H]2[C@H](O)c1ccnc2ccc(OC)cc12 [Quinine, reference compound] | 87 nM | 30 nM | 19 nM | IC50 [1, 6]: 96 nM
CCN(CC)CCCC(C)Nc1c(C)cnc2cc(Cl)ccc12 (stereo not shown) [Sontochin, reference compound] | – | – | – | IC50 (P. falciparum strain Dd2; [11]): 19 nM; IC50 (P. falciparum strain 7G8; [12]): 20 nM; IC50 (P. falciparum strains; range over Table 1 strains, read-out: IC50 values against the drug resistant strains of P. falciparum (range)): 8 to 20 nM; IC50 ([1]; P. falciparum Tm90.C2B, multidrug and atovaquone resistant, unit inferred, read-out: IC50 value against strain Tm90.C2B): 19.1 nM; IC50 (P. falciparum strain D6; [13]): 8 nM
